Assay results: patent publication US12208095B2, “Methods of treating breast cancer with tetrahydronaphthalene derivatives as estrogen receptor degraders” (Arvinas Operations, Inc., priority 2019, dated 2025)
Several values for one entry are separate records, joined by “and”; a condition that tells them apart may be missing. Equal entries are not always repeated.

Molecular target: T1, ERα (Homo sapiens, UniProt P03372)
T1 sequence (P03372 1-595): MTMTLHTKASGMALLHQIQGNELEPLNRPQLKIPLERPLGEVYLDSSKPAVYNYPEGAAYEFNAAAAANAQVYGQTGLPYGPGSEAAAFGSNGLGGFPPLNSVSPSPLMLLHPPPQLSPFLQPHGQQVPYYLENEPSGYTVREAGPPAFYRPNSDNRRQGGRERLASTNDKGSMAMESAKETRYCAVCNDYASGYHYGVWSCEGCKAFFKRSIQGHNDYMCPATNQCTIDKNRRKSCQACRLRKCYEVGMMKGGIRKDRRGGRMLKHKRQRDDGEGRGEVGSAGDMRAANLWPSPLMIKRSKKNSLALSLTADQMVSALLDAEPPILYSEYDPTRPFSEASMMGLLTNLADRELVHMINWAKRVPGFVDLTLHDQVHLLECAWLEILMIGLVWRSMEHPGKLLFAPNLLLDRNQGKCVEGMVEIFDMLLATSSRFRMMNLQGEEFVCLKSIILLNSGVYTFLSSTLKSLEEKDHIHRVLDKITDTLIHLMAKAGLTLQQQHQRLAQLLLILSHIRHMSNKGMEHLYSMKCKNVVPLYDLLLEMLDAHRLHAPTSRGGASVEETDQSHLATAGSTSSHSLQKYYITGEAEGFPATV
Assay: in vivo ERα degradation in MCF7 xenograft tumors (immunoblot)
Parameters: reduced tumor ERα levels by up to 95%; endogenous in cells; host or cells: MCF7 cells implanted in the mammary fat pad of NOD/SCID mice; species or system NOD/SCID mice
Experimental: Approximately 18 hours after the final administration, mice were sacrificed, and MCF7 xenografts were harvested and lysed to determine ER levels by immunoblotting. […] Diet was supplemented with peanut butter to help maintain body weights.
Sampling: Terminal sacrifice was ˜18 hrs after last dose; tumors were harvested, divided and flash frozen. ERα levels were determined by immunoblotting.
Cell Lysis: flash frozen tumors were removed from −80° C. storage and placed on dry ice. RIPA lysis buffer and Halt protease inhibitors were used at 400 μl per tumor sample. A steel ball (5 mm) was placed in each sample for tissue disruption. Samples were lysed with TissueLyzer at 24 Hz for 4 minutes. The homogenization was stopped half way through the process and the block flipped over for the duration of the process. […] Lysates were then measured for total protein concentration by BCA (per manufacturer's protocol).
Detection of proteins by immunoblot: lysates were mixed with sample buffer and reducing agent (per manufacturer's protocol). […] The blots were cut so that beta-actin and ERα can be detected from the same lane/sample. […]
Sampling: Tumors were measured twice weekly. […] ERα levels were determined by immunoblotting.
At study termination, the tumors were removed from the mice, and ERα levels were determined by immunoblotting the tumor homogenates.

SMILES: O=C1CC[C@H](N2Cc3cc(N4CCN(CC5CCN(c6ccc([C@@H]7c8ccc(O)cc8CC[C@@H]7c7ccccc7)cc6)CC5)CC4)ccc3C2=O)C(=O)N1 [Compound (I-c), (3S)-3-[5-[4-[[1-[4-[(1R, 2S)-6-hydroxy-2-phenyl-tetralin-1-yl]phenyl]-4-piperidyl]methyl]piperazin-1-yl]-1-oxo-isoindolin-2-yl]piperidine-2,6-dione]
- reduction of tumor ERα levels compared to vehicle (10 mg/kg p.o. once daily for 3 days, ~18 hours after final administration): up to 95%
- reduction of tumor ERα levels compared to vehicle at study termination (daily oral doses of 3, 10 and 30 mg/kg for 28 days (all doses)): > 94% and > 90%
